Patent US20030108872A1, “Genomics-assisted rapid identification of targets” (priority 2000, published 2003)

Tests used:
E. coli strain WO-153 = test: Genome-wide E. coli ORFmer overexpression rescue (OER) assay; type: cell-based; conditions: for PCR verification of OER clones: expected target gene: liquid microtiter assay, expected targets folA, murA, fabI; for PCR verification of OER clones: expected clone: two plate assay format (disk diffusion, gradient plate)
Protocol: Over expression Rescue Assays. Over expression assays were conducted with the E. coli strain WO-153 described in Table 7. Construction of WO-0153. […] The asmB1 mutation is a G to A transition at position 628 in the 1pxC gene. […] The tolC gene encodes an outer membrane protein that acts as a channel for the acrAB efflux pumps (See for example, Fralick, J. 1996. J. Bacteriol. 178:5801-5805). […] WO-0153 was constructed as follows. The asmB1 mutation was introduced into a DNA fragment containing the 1pxC gene and 1 kb of the 5′ end of the secA gene by site directed mutagenesis of the 1pxC gene using standard methods. A kan^R resistance cassette flanked by FRT sites was introduced 60 bp downstream of the 1pxC gene. The linear DNA construct was introduced into electrocompetent and recombinogenic E. coli KM354 (pTP223) as described by Murphy (See for example, Murphy, 1998, J. Bacteriol. 180: 2063-71). Transformants were selected on LB agar containing kanamycin (35 mcg/ml) and screened for sensitivity to novobiocin (20 mcg/ml). The presence of the asmB1 mutation in clones with the expected phenotype was verified by DNA sequence analysis. The kanR gene flanked by FRT sites was then excised from the 1pxC-secA intergenic region using a previously described method (See for example, Cherepanove, P. P, and Wackernagel, W. 1995. Gene 158: 9-14.). […] 178:5138-5143; Fralick, J. (1996). J. Bacteriol. 178:5801-5805; Fralick, J. A., et al. (1994) J. Bacteriol. 176:6404-6406; and Cherepanove, P. P, et al., (1995) Gene 158:9-14. […] Plasmid library DNA was transformed into WO-153 by electroporation as described above. Cells were collected from transformation plates by scraping and were equalized to an optical density of 1.53 on a Beckman DU650 spectrophotometer([…]). Groups of five libraries were mixed and frozen in LB media plus 10% (vol/vol) glycerol by immersion in a dry-ice/ethanol bath for 5 minutes.
Over-expression assays were performed in liquid media in a microtiter format, in a gradient plate format, or in a disk-diffusion format. The protocol used for the microtiter format was similar to the protocol described above for the MIC assay. Aliquots of 5 library pools spanning the genome were thawed at room temperature and 200 ul of each was inoculated into its own 20 ml of Mueller Hinton media containing ampicillin at 200 ug/ml and anhydrous tetracycline inducer as appropriate. Typically, replicates were performed using a number of final inducer concentrations, ranging from 0 to 100 ng/ml. Following an adequate mixing, 50 ul of inoculated media was mixed with 50 ul of the test antibiotic in Nunc brand 96-well microtiterplates. Typically, each group of five libraries was mixed with a range of concentrations of antibiotic spanning the minimum inhibitory concentration (MIC) of the antibiotic. […] Columns may contain 10 different groups of libraries as well as null vector and no innoculum controls. After mixing inoculum plus media with antibiotic, well contents were mixed by pipetting and incubated at 37° C. for 16 to 20 hours. Optical density at 600 nm was measured using a Molecular Devices SpectraMAX 250 spectrophotometer. […] Contents of wells showing rescue were transferred to LB agar plates containing ampicillin at 100 ug/ml, and were spread to obtain single colonies. Alternately, it is possible to maintain selection for the antibiotic being assayed by including it in the agar plates at this point.
OER Assay using Disk diffusion and Gradient Plate Assay formats. In the Disk diffusion plate format, the 3 inocula (see below) were plated on MHB plates containing ampicillin (100 mcg/ml) and anhydrous tetracycline (a-tet, 100 ng/ml). Two paper disks (6 mm diameter) containing 10×and 20×MIC of the test antiobiotic were placed on the surface of the plate.

[1] = system: cells in which murA is regulated by PBAD; test: MIC by microbroth dilution in E. coli under-expressing murA; type: cell-based; conditions: for MIC with decreasing regulator (L-arabinose) level: FIG. 4; for sensitivity on under-expression of murA: FIG. 6
Protocol: The wild-type gene murA, which encodes the enzyme UDP-N-acetylglucosamine enolpyruvate transferase, was knocked out in E. coli, and the gene was placed under ectopic expression in the yibD locus under regulation by PBAD with the regulator, L-arabinose.
Methods. […] IPTG was added to a final concentration of 0.1 mM and anhydrous-tetracycline was added to a final concentration of 100 ng/ml to the culture media for routine growth of GTC-EC#313 and GTC-EC#346, respectively.
The specificity and sensitivity of the resultant colonies to added drugs were followed by measuring the minimal inhibitory concentration (MIC) of trimethoprim, sulfamethozasone, phosphomycin and D-cycloserine at varying regulator levels. This was performed according to NCCLS (National Center for Clinical Laboratory Standards) recommendations(NCCLS, 1997, METHODS FOR DILUTION ANTIMICROBIAL SUSCEPTIBILITY TESTS FOR BACTERIA THAT GROW AEROBICALLY, 4th ed.; approved standard. NCCLS document M7-A4. NCCLS, Wayne, Pa.), in 100 μl volume in 96-well format, with serial two-fold dilutions of drug concentration.

## C[C@@H]1O[C@@H]1P(=O)(O)O [phosphomycin]
E. coli strain WO-153
  PCR verification of OER clones: expected target gene: expected target gene was identifed
  PCR verification of OER clones: expected clone: expected clone was isolated
[1]
  MIC with decreasing regulator (L-arabinose) level: decreases
  sensitivity on under-expression of murA: hypersensitivity

## COc1cc(Cc2cnc(N)nc2N)cc(OC)c1OC [trimethoprim]
E. coli strain WO-153
  PCR verification of OER clones: expected target gene: expected target gene was identifed
  PCR verification of OER clones: expected clone: expected clone was isolated
[1]
  MIC with decreasing regulator (L-arabinose) level: relatively unchanged
  sensitivity on under-expression of murA: not sensitive
